Reference: ChEMBL document CHEMBL1158509, “Novel selective thiazoleacetic acids as CRTH2 antagonists developed from in silico derived hits. Part 2” (Bioorg Med Chem Lett, 2010)

Assays:
[1] = molecular target: T1, Prostaglandin D2 receptor 2 (Homo sapiens) (UniProt Q9Y5Y4); assay: Antagonist activity at human CRTH2 receptor expressed in […] cells assessed as inhibition of beta arrestin translocation by bioluminescence resonance energy transfer assay relative to control; format: functional, cell-based
T1 sequence (whole entry): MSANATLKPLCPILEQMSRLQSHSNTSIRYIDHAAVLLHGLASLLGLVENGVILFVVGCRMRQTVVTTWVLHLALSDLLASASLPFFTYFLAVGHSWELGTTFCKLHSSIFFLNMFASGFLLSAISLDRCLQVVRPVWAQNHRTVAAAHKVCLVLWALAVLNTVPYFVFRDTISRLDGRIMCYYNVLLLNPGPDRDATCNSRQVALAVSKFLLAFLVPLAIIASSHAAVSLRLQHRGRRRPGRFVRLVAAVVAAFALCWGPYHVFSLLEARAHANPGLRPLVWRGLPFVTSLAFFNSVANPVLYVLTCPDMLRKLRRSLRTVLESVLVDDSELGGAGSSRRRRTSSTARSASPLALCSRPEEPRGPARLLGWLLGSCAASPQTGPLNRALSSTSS

[2] = molecular target: T2, Prostaglandin D2 receptor 2 (Homo sapiens, UniProt Q9Y5Y4); assay: Displacement of[3H]PGD2 from human CRTH2 receptor expressed in […] cells; format: cell-based
T2 sequence (Q9Y5Y4 whole entry): T1 sequence (whole entry)

[3] = molecular target: T2, Prostaglandin D2 receptor 2; assay: Antagonist activity at human CRTH2 receptor expressed in […] cells assessed as inhibition of beta arrestin translocation by bioluminescence resonance energy transfer assay; format: functional, cell-based

Row | SMILES | Efficacy [1] | IC50 [2] | IC50 [3]
1 | NS(=O)(=O)c1cccc(-c2nc(C(c3ccc(F)cc3)c3ccc(F)cc3)sc2CC(=O)O)c1 | 55% | 140 nM | 710 nM
2 | O=C(O)Cc1sc(C(c2ccc(F)cc2)c2ccc(F)cc2)nc1-c1ccc(F)cc1 | 80% | 7.5 nM | 72 nM
3 | CN(C)c1cc(-c2nc(C(c3ccc(F)cc3)c3ccc(F)cc3)sc2CC(=O)O)ccn1 | 80% | 380 nM | > 100000 nM
4 | O=C(O)Cc1sc(C(c2ccccc2)c2ccccc2)nc1-c1ccc(C(F)(F)F)cc1 | 80% | 1100 nM | > 100000 nM
5 | O=C(O)Cc1sc(C(c2ccc(F)cc2)c2ccc(F)cc2)nc1-c1cc(F)cc(F)c1 | 80% | 35 nM | 340 nM
6 | O=C(O)Cc1sc(C(c2ccc(F)cc2)c2ccc(F)cc2)nc1-c1ccnc(O)c1 | 60% |  | 
7 | O=C(O)Cc1sc(C(c2ccccc2)c2ccccc2)nc1-c1ccccc1 | 80% | 570 nM | 370 nM
8 | CS(=O)(=O)Nc1cccc(-c2nc(C(c3ccc(F)cc3)c3ccc(F)cc3)sc2CC(=O)O)c1 | 80% | 40 nM | 370 nM
9 | O=C(O)Cc1sc(Cc2ccccc2-c2ccccc2)nc1-c1ccc(Cl)cc1 | 50% |  | 
10 | N#Cc1ccc(-c2nc(C(c3ccc(F)cc3)c3ccc(F)cc3)sc2CC(=O)O)cc1 | 30% | 150 nM | 1500 nM
11 | COc1ccc(C(c2ccccn2)c2nc(-c3ccc(Cl)cc3)c(CC(=O)O)s2)cc1 (configuration not stated) | 80% | 61 nM | 310 nM
12 | O=C(O)Cc1sc(COc2ccc(Cl)cc2)nc1-c1ccc(Cl)cc1 | 50% | 32 nM | 370 nM
13 | O=C(O)Cc1sc(C2(c3ccccc3)CCNCC2)nc1-c1ccc(Cl)cc1 | 50% | 2900 nM | > 100000 nM
14 | O=C(O)Cc1sc(C(c2ccc(F)cc2)c2ccc(F)cc2)nc1-c1cc[nH]c(=O)c1 |  | 68 nM | 890 nM
15 | O=C(O)Cc1sc(C(c2ccc(F)cc2)c2ccc(F)cc2)nc1-c1ccc(F)c(F)c1 | 80% | 3.5 nM | 41 nM
16 | COc1cc(-c2nc(C(c3ccc(F)cc3)c3ccc(F)cc3)sc2CC(=O)O)ccn1 | 60% | 29 nM | 380 nM
17 | O=C(O)Cc1sc(C(c2ccc(F)cc2)c2ccc(F)cc2)nc1-c1ccc(Cl)cc1 | 80% | 9.7 nM | 180 nM
18 | COc1ccc(Cl)cc1-c1nc(C(c2ccccc2)c2ccccc2)sc1CC(=O)O | 80% | 9400 nM | > 100000 nM
19 | O=C(O)Cc1sc(C(c2ccc(F)cc2)c2ccc(F)cc2)nc1-c1ccn[nH]1 | 30% | 280 nM | 3300 nM
20 | O=C(O)Cc1sc(C(c2ccc(F)cc2)c2ccc(F)cc2)nc1-c1ccnc(Cl)c1 | 80% | 3.1 nM | 39 nM
21 | N#Cc1cccc(-c2nc(C(c3ccc(F)cc3)c3ccc(F)cc3)sc2CC(=O)O)c1 | 80% | 20 nM | 220 nM
22 | O=C(O)Cc1sc(C(c2ccc(F)cc2)c2ccc(F)cc2)nc1-c1cccc(F)c1 | 80% | 1.4 nM | 18 nM

Row | SMILES | Efficacy [1] | IC50 [2] | IC50 [3]
23 | O=C(O)Cc1sc(C(c2ccccc2)c2ccccc2)nc1-c1cccc(F)c1 | 80% | 2.9 nM | 29 nM
24 | O=C(O)Cc1sc(-c2ccc(Oc3ccccc3)cc2)nc1-c1ccc(Cl)cc1 | 50% |  | 1300 nM
25 | O=C(O)Cc1sc(C(c2ccc(F)cc2)c2ccc(F)cc2)nc1-c1cncc(F)c1 | 80% | 71 nM | 300 nM
26 | O=C(O)Cc1sc(C(c2ccc(F)cc2)c2ccc(F)cc2)nc1-c1cn[nH]c1 | 80% | 16 nM | 220 nM
27 | Cc1cc(-c2nc(C(c3ccc(F)cc3)c3ccc(F)cc3)sc2CC(=O)O)ccn1 | 80% | 3.1 nM | 53 nM
28 | O=C(O)Cc1sc(C(c2ccc(F)cc2)c2ccc(F)cc2)nc1-c1ccccc1 | 80% | 16 nM | 240 nM
29 | O=C(O)Cc1sc(C(c2ccc(F)cc2)c2ccc(F)cc2)nc1-c1ccnc(F)c1 | 80% | 0.48 nM | 4.7 nM
30 | O=C(O)Cc1sc(C(c2ccccc2)c2ccc(O)cc2)nc1-c1ccc(F)cc1 (configuration not stated) | 80% | 3.4 nM | 30 nM
31 | Cn1cc(-c2nc(C(c3ccc(F)cc3)c3ccc(F)cc3)sc2CC(=O)O)cn1 | 80% | 1300 nM | 3500 nM
32 | CC(=O)N1CCC(c2ccccc2)(c2nc(-c3ccc(Cl)cc3)c(CC(=O)O)s2)CC1 | 50% | 52 nM | 550 nM
33 | Nc1cc(-c2nc(C(c3ccc(F)cc3)c3ccc(F)cc3)sc2CC(=O)O)cc(F)n1 | 30% | 220 nM | 1400 nM
34 | O=C(O)Cc1sc(C(c2ccc(F)cc2)c2ccc(F)cc2)nc1-c1cc(F)nc(F)c1 | 80% | 5.4 nM | 110 nM
35 | O=C(O)Cc1sc(C(c2ccc(F)cc2)c2ccc(F)cc2)nc1-c1ccnc(N2CCC2)c1 | 80% | 660 nM | > 100000 nM
36 | O=C(O)Cc1sc(C(c2ccc(F)cc2)c2ccc(F)cc2)nc1-c1ccnc(N2CCCC2)c1 | 80% | 230 nM | > 100000 nM
37 | CNc1cc(-c2nc(C(c3ccc(F)cc3)c3ccc(F)cc3)sc2CC(=O)O)ccn1 | 80% | 25 nM | 170 nM
38 | O=C(O)Cc1sc(C2COc3ccccc3O2)nc1-c1ccc(Cl)cc1 (configuration not stated) | 50% | 500 nM | 2000 nM
39 | Nc1ccc(-c2nc(C(c3ccc(F)cc3)c3ccc(F)cc3)sc2CC(=O)O)cn1 | 60% | 100 nM | 500 nM
40 | N#Cc1cc(-c2nc(C(c3ccc(F)cc3)c3ccc(F)cc3)sc2CC(=O)O)ccc1F | 80% | 57 nM | 520 nM
41 | CS(=O)(=O)c1cccc(-c2nc(C(c3ccc(F)cc3)c3ccc(F)cc3)sc2CC(=O)O)c1 | 30% | 590 nM | 6300 nM
42 | O=C(O)Cc1sc(C(c2ccc(F)cc2)c2ccc(F)cc2)nc1-c1ccoc1 | 80% | 14 nM | 130 nM
43 | COc1ccc(OC)c(-c2nc(C(c3ccccc3)c3ccccc3)sc2CC(=O)O)c1 | 80% |  | > 100000 nM

Continued, values first:

Row | Efficacy [1] | IC50 [2] | IC50 [3] | SMILES
44 | 50% |  |  | O=C(O)Cc1sc(Cc2ccccc2)nc1-c1ccc(Cl)cc1
45 | 30% | 41 nM | 570 nM | O=C(O)Cc1sc(Cc2cccc3ccccc23)nc1-c1ccc(Cl)cc1
46 | 80% | 8.7 nM | 77 nM | O=C(O)Cc1sc(C(c2ccccc2)c2ccccc2)nc1-c1ccc(F)cc1
47 | 80% | 17 nM | 36 nM | O=C(O)Cc1sc(C(c2ccccc2)c2ccc(F)cc2)nc1-c1ccc(Cl)cc1 (configuration not stated)
48 | 80% | 8.4 nM | 76 nM | COc1ccc(C(c2ccccc2)c2nc(-c3ccc(Cl)cc3)c(CC(=O)O)s2)cc1 (configuration not stated)
49 | 55% | 370 nM | 910 nM | COc1ccc(-c2nc(C(c3ccccc3)c3ccccc3)sc2CC(=O)O)cc1
50 | 80% | 45 nM | 75 nM | O=C(O)Cc1sc(C(c2ccccc2)c2ccc(Cl)cc2)nc1-c1ccc(Cl)cc1 (configuration not stated)
51 | 55% | 810 nM | 1900 nM | O=C(O)Cc1sc(C(c2ccccc2)c2ccccn2)nc1-c1ccc(Cl)cc1 (configuration not stated)
52 | 50% | 250 nM | 450 nM | O=C(O)Cc1sc(CSc2ccccc2)nc1-c1ccc(Cl)cc1
53 | 80% | 3200 nM | > 100000 nM | O=C(O)Cc1sc(C(c2ccccc2)c2cccc(Cl)n2)nc1-c1ccc(Cl)cc1 (configuration not stated)
54 | 80% | 10 nM | 64 nM | O=C(O)Cc1sc(C(c2ccccc2)c2ccc(F)c(F)c2)nc1-c1ccc(F)cc1 (configuration not stated)
55 | 50% | 150 nM | 96 nM | O=C(O)Cc1sc(Nc2cccc3ccccc23)nc1-c1ccc(Cl)cc1
56 | 50% | 190 nM | > 100000 nM | CCC(c1ccccc1)c1nc(-c2ccc(Cl)cc2)c(CC(=O)O)s1 (configuration not stated)
57 | 50% | 340 nM | 32000 nM | O=C(O)Cc1sc(CC(c2ccccc2)c2ccccc2)nc1-c1ccc(Cl)cc1
58 | 80% | 14 nM | 79 nM | O=C(O)Cc1sc(C(c2ccccc2)c2ccc(Cl)cc2)nc1-c1ccc(F)cc1 (configuration not stated)
59 | 50% | 530 nM | > 100000 nM | O=C(O)Cc1sc(C(c2ccccc2)C2CCCCC2)nc1-c1ccc(Cl)cc1 (configuration not stated)
60 | 50% | 56 nM | 510 nM | O=C(O)Cc1sc(C(Cc2ccccc2)c2ccccc2)nc1-c1ccc(Cl)cc1 (configuration not stated)
61 | 30% | 440 nM | 2300 nM | O=C(O)Cc1sc(NCc2ccccc2)nc1-c1ccc(Cl)cc1
62 | 50% |  |  | O=C(O)Cc1sc(Nc2ccccc2)nc1-c1ccc(Cl)cc1
63 | 50% |  | 960 nM | O=C(O)Cc1sc(-c2ccccc2)nc1-c1ccc(Cl)cc1 [FENTIAZAC]
